What all share (assay): MIC, microdilution broth method (NCCLS)
Common to all, as to type: cell-based
Conditions in all cases: 35° C., 16-20 hours
On the technique in general: Broth dilution looks for growth in wells or tubes with falling amounts of substance.

The subject of one experiment is E. faecalis ATCC29212. As for the experimental part: (§1) Minimal inhibitory concentration (MIC) has been an indicator of in vitro antibacterial activity widely used in the art. The in vitro antimicrobial activity of the compounds was determined by the microdilution broth method following the test method from the National Committee for Clinical Laboratory Standards (NCCLS). This method is described in the NCCLS Document M7-A4, Vol.17, No.2, “Methods for Dilution Antimicrobial Susceptibility Test for Bacteria that Grow Aerobically—Fourth Edition”, which is incorporated herein by reference.
(§2) In this method two-fold serial dilutions of drug in cation adjusted Mueller-Hinton broth are added to wells in microdilution trays. The test organisms are prepared by adjusting the turbidity of actively growing broth cultures so that the final concentration of test organism after it is added to the wells is approximately 5×10^4 CFU/well.
(§3) Following inoculation of the microdilution trays, the trays are incubated at 35° C. for 16-20 hours and then read. […] The amount of growth in the wells containing the test compound is compared with the amount of growth in the growth-control wells (no test compound) used in each tray. As set forth in Table 1, compounds of the present invention were tested against a variety of Gram positive and Gram negative pathogenic bacteria resulting in a range of activities depending on the organism tested.

Another experiment concerns E. coli OC2605. Here is the method:
as §1, §2, §3

A further experiment relates to S. pneumoniae ATCC49619. As for the experimental part:
as §1, §2, §3

For the next experiment, the system named is H. influenzae ATCC49247. As for the experimental part: as §1, §2, §3
A further experiment has as its system S. aureus ATCC29213. Here is the method: as §1, §2, §3

≈ marks a conversion by molar mass, not a printed value. Bounds are passed on as bounds.

`CCC1OC(=O)C(C)C(=O)C(C)C(OC2OC(C)CC(N(C)C)C2O)C(C)(OC(=O)NCC=Cc2ccc(Br)cc2)CC(C)C(=O)C(C)C2CC(=O)OC12C` (stereo not drawn) [Compound 22]: the “MIC (μg/mL) C” value in the experiment on E. faecalis ATCC29212 worked out at 0.25 µg/mL (≈ 0.299 µM). The “MIC (μg/mL) A” value against E. coli OC2605 turned out to be 16 µg/mL (≈ 19.1 µM). The “MIC (μg/mL) D” value in the experiment with S. pneumoniae ATCC49619 stood at 0.06 µg/mL (≈ 0.0718 µM). Moreover, the “MIC (μg/mL) E” value in the experiment with H. influenzae ATCC49247 was determined as 4 µg/mL (≈ 4.79 µM). For the same compound, the “MIC (μg/mL) B” value against S. aureus ATCC29213 was 1 µg/mL (≈ 1.2 µM).

Take `CCC1OC(=O)C(C)C(=O)C(C)C(OC2OC(C)CC(N(C)C)C2O)C(C)(OC(=O)N(CC=Cc2ccc(Br)cc2)CC=Cc2ccc(Br)cc2)CC(C)C(=O)C(C)C2CC(=O)OC12C` (stereo not drawn) [Compound 23]: the “MIC (μg/mL) C” value against E. faecalis ATCC29212 turned out to be 2 µg/mL (≈ 1.94 µM). Also, the “MIC (μg/mL) A” value against E. coli OC2605 is above 16 µg/mL. Moreover, the “MIC (μg/mL) D” value with S. pneumoniae ATCC49619 was determined as 2 µg/mL (≈ 1.94 µM). Besides, the “MIC (μg/mL) E” value in the experiment on H. influenzae ATCC49247 is above 16 µg/mL. Moreover, the “MIC (μg/mL) B” value against S. aureus ATCC29213 was 8 µg/mL (≈ 7.76 µM).

As for `CCC1OC(=O)C(C)C(=O)C(C)C(OC2OC(C)CC(N(C)C)C2O)C(C)(OC(=O)NCc2ccc(-c3ccccn3)cc2)CC(C)C(=O)C(C)C2CC(=O)OC12C` (stereo not drawn) [Compound 26], the “MIC (μg/mL) C” value in the experiment on E. faecalis ATCC29212 was 0.12 µg/mL (≈ 0.149 µM). The “MIC (μg/mL) A” value with E. coli OC2605 is above 16 µg/mL. In addition, the “MIC (μg/mL) D” value against S. pneumoniae ATCC49619 amounted to 0.06 µg/mL (≈ 0.0743 µM). Moreover, the “MIC (μg/mL) E” value against H. influenzae ATCC49247 stood at 8 µg/mL (≈ 9.9 µM). In addition, in the experiment with S. aureus ATCC29213, the “MIC (μg/mL) B” value was 1 µg/mL (≈ 1.24 µM).

Regarding `CCC1OC(=O)C(C)C(=O)C(C)C(OC2OC(C)CC(N(C)C)C2O)C(C)(OC(=O)NCC=Cc2ccc3ncccc3c2)CC(C)C(=O)C(C)C2CC(=O)OC12C` (stereo not drawn) [Compound 27], the “MIC (μg/mL) C” value against E. faecalis ATCC29212 was 0.06 µg/mL (≈ 0.0743 µM). For the same compound, in the experiment on E. coli OC2605, the “MIC (μg/mL) A” value came out at 16 µg/mL (≈ 19.8 µM). Also, in the experiment with S. pneumoniae ATCC49619, the “MIC (μg/mL) D” value stood at 0.03 µg/mL (≈ 0.0371 µM). In the experiment with H. influenzae ATCC49247, the “MIC (μg/mL) E” value is 1 µg/mL (≈ 1.24 µM). Moreover, in the experiment with S. aureus ATCC29213, the “MIC (μg/mL) B” value amounted to 0.5 µg/mL (≈ 0.619 µM).

Take `CCC1OC(=O)C(C)C(=O)C(C)C(OC2OC(C)CC(N(C)C)C2O)C(C)(OC(=O)NCc2ccc3ccccc3n2)CC(C)C(=O)C(C)C2CC(=O)OC12C` (stereo not drawn) [Compound 28]: the “MIC (μg/mL) C” value against E. faecalis ATCC29212 amounted to 0.5 µg/mL (≈ 0.639 µM). Moreover, in the experiment with E. coli OC2605, the “MIC (μg/mL) A” value was above 16 µg/mL. In addition, the “MIC (μg/mL) D” value against S. pneumoniae ATCC49619 worked out at 0.12 µg/mL (≈ 0.153 µM). The “MIC (μg/mL) E” value with H. influenzae ATCC49247 stood at 8 µg/mL (≈ 10.2 µM). For the same compound, the “MIC (μg/mL) B” value with S. aureus ATCC29213 was determined as 2 µg/mL (≈ 2.56 µM).

Regarding `CCC1OC(=O)C(C)C(=O)C(C)C(OC2OC(C)CC(N(C)C)C2O)C(C)(OC(=O)NCC=Cc2ccc(-c3ccccn3)cc2)CC(C)C(=O)C(C)C2CC(=O)OC12C` (stereo not drawn) [Compound 29], the “MIC (μg/mL) C” value against E. faecalis ATCC29212 is 0.25 µg/mL (≈ 0.3 µM). In addition, in the experiment on E. coli OC2605, the “MIC (μg/mL) A” value is above 16 µg/mL. The “MIC (μg/mL) D” value against S. pneumoniae ATCC49619 was 0.06 µg/mL (≈ 0.0719 µM). Besides, the “MIC (μg/mL) E” value in the experiment on H. influenzae ATCC49247 turned out to be 2 µg/mL (≈ 2.4 µM). The “MIC (μg/mL) B” value in the experiment on S. aureus ATCC29213 was 0.5 µg/mL (≈ 0.6 µM).

Regarding `CCC1OC(=O)C(C)C(=O)C(C)C(OC2OC(C)CC(N(C)C)C2O)C(C)(OC(=O)NCC=Cc2ccc3cccnc3c2)CC(C)C(=O)C(C)C2CC(=O)OC12C` (stereo not drawn) [Compound 31], the “MIC (μg/mL) C” value in the experiment with E. faecalis ATCC29212 amounted to 0.06 µg/mL (≈ 0.0743 µM). For the same compound, in the experiment on E. coli OC2605, the “MIC (μg/mL) A” value turned out to be 16 µg/mL (≈ 19.8 µM). For the same compound, the “MIC (μg/mL) D” value against S. pneumoniae ATCC49619 amounted to 0.03 µg/mL (≈ 0.0371 µM). Moreover, the “MIC (μg/mL) E” value in the experiment on H. influenzae ATCC49247 was above 16 µg/mL. Further, in the experiment on S. aureus ATCC29213, the “MIC (μg/mL) B” value was 0.25 µg/mL (≈ 0.309 µM).

For the compound `CCC1OC(=O)C(C)C(=O)C(C)C(OC2OC(C)CC(N(C)C)C2O)C(C)(OC(=O)NCC=Cc2ccc(-c3ncccn3)cc2F)CC(C)C(=O)C(C)C2CC(=O)OC12C` (stereo not drawn) [Compound 32], in the experiment with E. faecalis ATCC29212, the “MIC (μg/mL) C” value stood at 0.25 µg/mL (≈ 0.293 µM). Also, the “MIC (μg/mL) A” value against E. coli OC2605 is above 16 µg/mL. In addition, the “MIC (μg/mL) D” value against S. pneumoniae ATCC49619 is 0.06 µg/mL (≈ 0.0703 µM). In addition, the “MIC (μg/mL) E” value in the experiment on H. influenzae ATCC49247 amounted to 8 µg/mL (≈ 9.38 µM). Besides, the “MIC (μg/mL) B” value against S. aureus ATCC29213 amounted to 0.5 µg/mL (≈ 0.586 µM).

On to `CCC1OC(=O)C(C)C(=O)C(C)C(OC2OC(C)CC(N(C)C)C2O)C(C)(OC(=O)NCC=Cc2ccccn2)CC(C)C(=O)C(C)C2CC(=O)OC12C` (stereo not drawn) [Compound 33], for which, in the experiment on E. faecalis ATCC29212, the “MIC (μg/mL) C” value stood at 0.5 µg/mL (≈ 0.66 µM). Besides, the “MIC (μg/mL) A” value against E. coli OC2605 is above 16 µg/mL. For the same compound, in the experiment with S. pneumoniae ATCC49619, the “MIC (μg/mL) D” value was found to be 0.12 µg/mL (≈ 0.158 µM). Also, the “MIC (μg/mL) E” value in the experiment on H. influenzae ATCC49247 amounted to 8 µg/mL (≈ 10.6 µM). Moreover, the “MIC (μg/mL) B” value in the experiment on S. aureus ATCC29213 is 2 µg/mL (≈ 2.64 µM).

The values above are taken from US6713455B2, “6-O-carbamate-11,12-lacto-ketolide antimicrobials” (Ortho-McNeil Pharmaceutical, Inc., priority 2001, dated 2004).
